In experiment [1] the target is T1, CRTH2 (Homo sapiens, UniProt Q9Y5Y4).
T1 construct: polymorphonuclear cells (0.5 ml; 10^6/ml cells) in PBS containing 0.9 mM CaCl2 and 0.5 mM MgCl2) were preincubated with various concentrations of test compounds; endogenous in cells; host or cells: polymorphonuclear cells (eosinophils gated by side scatter and VLA-4)
T1 sequence (Q9Y5Y4 1-395): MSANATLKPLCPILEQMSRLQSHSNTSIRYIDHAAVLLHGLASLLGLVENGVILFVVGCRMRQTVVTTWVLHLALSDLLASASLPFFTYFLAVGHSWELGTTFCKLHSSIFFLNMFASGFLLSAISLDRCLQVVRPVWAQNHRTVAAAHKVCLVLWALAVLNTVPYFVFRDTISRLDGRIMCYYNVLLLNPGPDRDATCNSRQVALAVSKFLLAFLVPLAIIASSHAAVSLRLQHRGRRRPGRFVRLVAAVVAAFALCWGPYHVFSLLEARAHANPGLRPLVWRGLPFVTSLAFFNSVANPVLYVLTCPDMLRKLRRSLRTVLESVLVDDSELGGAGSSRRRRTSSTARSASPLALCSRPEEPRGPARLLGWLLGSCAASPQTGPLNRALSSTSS
In words: Human Whole Blood CD11b Antagonist Assay (CD11b expression in eosinophils challenged with 15R-Methyl-PGD2). In kind it is cell-based. Particulars: agonist 15R-Methyl-PGD2 10 nM, flow cytometry. On the procedure: Human Whole Blood CD11b Antagonist Assay (modified from Nicholson, et al. Pulmonary Pharmacology and Therapeutics: 20 (2007); 52-59). The potential CRTH2 antagonist activity of certain compounds was tested in human whole blood using an assay that tests the ability of the compounds to block the CD11b expression in eosinophils by 15-R-methyl-PGD2. A CRTH2 antagonist should block CD11b expression by subsequently added 15-Methyl-PGD2. Human whole blood (200 μL) was incubated at 37° C. for 10 minutes in the presence of various concentrations of test compounds before being challenged with the agonist 15R-Methyl-PGD2 (10 nM). Reactions were terminated by the addition of ice-cold PBS+0.5% BSA+2 m MEDTA (1 mL) and centrifugation (300×g for 5 minutes at 4° C.) Cells were then incubated at 4° C. for 10 min in the presence of human IgG. Cells were then incubated for 30-45 min with a mixture of PE-Cy5-labeled mouse anti-human CD16 (10 μl; BD Biosciences) and FITC-labeled mouse anti-human CD11b (10 μL; Beckman Coulter.) After rinsing (1 mL ice-cold PBS+0.5% BSA+2 mMEDTA), red blood cells were lysed by the addition of 1 mL ice-cold H2O to the cell pellet for 30 sec-1 min immediately followed by the addition of 3.5% NaCl (300 μL.) Cells were then rinsed (2×−1 ml ice cold PBS+0.5% BSA+2 m MEDTA) and fixed in PBS containing 1% formaldehyde. The distribution of fluorescence intensities was measured by flow cytometry. Eosinophils were gated out on the basis of their granularity (high side scatter) and absence of CD-16. CD11b was then measured on this eosinophil population on the basis of fluorescence due to FITC. DPBS CD11b Antagonist Assay. The potential CRTH2 antagonist activity of certain compounds was tested using a CD11b expression assay using essentially the method described by Monneret et al. (J Pharmacol Exp Ther 304:349-55, 2003). Briefly, polymorphonuclear cells (0.5 ml; 10^6/ml cells) in PBS containing 0.9 mM CaCl2 and 0.5 mM MgCl2) were preincubated with various concentrations of test compounds at room temperature for 10 minutes before they were challenged with the agonist 15R-Methyl-PGD2 (10 nM). The incubations were terminated by the addition of ice-cold FACSFlow (BD Biosciences; Cat# 342003) and centrifugation (400 g for 5 minutes at 4° C.). The cells were then incubated for 30 minutes at 4° C. with a mixture of PE-labeled mouse anti-human VLA-4 (5 μl; BD Biosciences) and FITC-labeled mouse anti-human CD11b (10 μl; Beckman Coulter). […] The distribution of fluorescence intensities among 60,000 cells was measured by flow cytometry. Eosinophils were gated out on the basis of their granularity (high side scatter) and labeling with VLA-4 (PE fluorescence). CD11b was then measured in the eosinophil region on the basis of fluorescence due to FITC. […]
For orientation: In flow cytometry, cells or beads pass a laser one at a time.

Experiment [2] concerns the target T1, CRTH2. The experiment is described as follows: DPBS CD11b Antagonist Assay (CD11b expression in eosinophils, polymorphonuclear cells challenged with 15R-Methyl-PGD2). The format is cell-based. Particulars: polymorphonuclear cells in PBS with CaCl2 and MgCl2; agonist 15R-Methyl-PGD2 10 nM; flow cytometry. On the procedure:
Human Whole Blood CD11b Antagonist Assay (modified from Nicholson, et al. Pulmonary Pharmacology and Therapeutics: 20 (2007); 52-59). The potential CRTH2 antagonist activity of certain compounds was tested in human whole blood using an assay that tests the ability of the compounds to block the CD11b expression in eosinophils by 15-R-methyl-PGD2. A CRTH2 antagonist should block CD11b expression by subsequently added 15-Methyl-PGD2. Human whole blood (200 μL) was incubated at 37° C. for 10 minutes in the presence of various concentrations of test compounds before being challenged with the agonist 15R-Methyl-PGD2 (10 nM). Reactions were terminated by the addition of ice-cold PBS+0.5% BSA+2 m MEDTA (1 mL) and centrifugation (300×g for 5 minutes at 4° C.) Cells were then incubated at 4° C. for 10 min in the presence of human IgG. Cells were then incubated for 30-45 min with a mixture of PE-Cy5-labeled mouse anti-human CD16 (10 μl; BD Biosciences) and FITC-labeled mouse anti-human CD11b (10 μL; Beckman Coulter.) After rinsing (1 mL ice-cold PBS+0.5% BSA+2 mMEDTA), red blood cells were lysed by the addition of 1 mL ice-cold H2O to the cell pellet for 30 sec-1 min immediately followed by the addition of 3.5% NaCl (300 μL.) Cells were then rinsed (2×−1 ml ice cold PBS+0.5% BSA+2 m MEDTA) and fixed in PBS containing 1% formaldehyde. The distribution of fluorescence intensities was measured by flow cytometry. Eosinophils were gated out on the basis of their granularity (high side scatter) and absence of CD-16. CD11b was then measured on this eosinophil population on the basis of fluorescence due to FITC. DPBS CD11b Antagonist Assay. The potential CRTH2 antagonist activity of certain compounds was tested using a CD11b expression assay using essentially the method described by Monneret et al. (J Pharmacol Exp Ther 304:349-55, 2003). Briefly, polymorphonuclear cells (0.5 ml; 10^6/ml cells) in PBS containing 0.9 mM CaCl2 and 0.5 mM MgCl2) were preincubated with various concentrations of test compounds at room temperature for 10 minutes before they were challenged with the agonist 15R-Methyl-PGD2 (10 nM). The incubations were terminated by the addition of ice-cold FACSFlow (BD Biosciences; Cat# 342003) and centrifugation (400 g for 5 minutes at 4° C.). The cells were then incubated for 30 minutes at 4° C. with a mixture of PE-labeled mouse anti-human VLA-4 (5 μl; BD Biosciences) and FITC-labeled mouse anti-human CD11b (10 μl; Beckman Coulter). The cells were then incubated with Optilyse C (0.25 ml; Beckman Coulter) for 15 minutes, centrifuged, and then fixed in PBS (0.4 ml; calcium and magnesium free) containing 1% formaldehyde. The distribution of fluorescence intensities among 60,000 cells was measured by flow cytometry. Eosinophils were gated out on the basis of their granularity (high side scatter) and labeling with VLA-4 (PE fluorescence). CD11b was then measured in the eosinophil region on the basis of fluorescence due to FITC. All data were corrected for the value obtained for the corresponding isotope control antibody.

For the molecule `CCOC(=O)Cn1c(C)c(Cc2ccccc2S(=O)(=O)N(C)CC)c2c1CC(C)(C)CC2=O` [Compound I-2, Ethyl 2-(3-(2-(N-ethyl-N-methylsulfamoyl)benzyl)-2,6,6-trimethyl-4-oxo-4,5,6,7-tetrahydro-1H-indol-1-yl)acetate], the half-inhibitory concentration (IC50) is greater than 600 nM in experiment [1] and 100 to 600 nM in experiment [2].

For the molecule `Cc1c(Cc2ccccc2S(=O)(=O)N2CCCCC2)c2c(n1CC(=O)O)CC(C)(C)CC2=O` [Compound I-4, 2-(2,6,6-Trimethyl-4-oxo-3-(2-(piperidin-1-ylsulfonyl)benzyl)-4,5,6,7-tetrahydro-1H-indol-1-yl)acetic acid], the IC50 in experiment [1] and in experiment [2] was less than 10 nM throughout.

In the case of `Cc1c(C(=O)c2ccccc2S(=O)(=O)N2CCOCC2)c2c(n1CC(=O)O)CCC(C)(C)C2` [Compound I-1, 2-(2,5,5-Trimethyl-3-(2-(morpholinosulfonyl)benzoyl)-4,5,6,7-tetrahydro-1H-indol-1-yl)acetic acid], the IC50 in experiment [1] and in experiment [2] was 100 to 600 nM throughout.

Take `CCN(C)S(=O)(=O)c1ccccc1Cc1c2c(n(CC(=O)O)c1C)CC(C)(C)CC2=O` [Compound I-3, 2-(3-(2-(N-ethyl-N-methylsulfamoyl)benzyl)-2,6,6-trimethyl-4-oxo-4,5,6,7-tetrahydro-1H-indol-1-yl)acetic acid]: the results for the IC50 in experiment [1] and in experiment [2] were 10 to 100 nM and less than 10 nM, respectively.

In the case of `CCOC(=O)C(C)n1c(C)c(Cc2ccccc2S(=O)(=O)N2CCCC2)c2c1CC(C)(C)CC2=O` (stereo not drawn) [Compound I-5, Ethyl 2-(2,6,6-trimethyl-4-oxo-3-(2-(pyrrolidin-1-ylsulfonyl)benzyl)-4,5,6,7-tetrahydro-1H-indol-1-yl)propanoate], the half-inhibitory concentration (IC50) in experiment [2] was greater than 600 nM.

In general, IC50 refers to the concentration that inhibits the measured activity by half. A low value points to greater potency.

(Values after patent publication US20110311483A1, “CRTH2 MODULATORS” (IRONWOOD PHARMACEUTICALS, INC., priority 2010, published 2011).)
